Data reported in US4532122A, “Anti-trypanosomal activity of platinum co-ordination compounds” (The United States of America as represented by the …, priority 1981, dated 1985).
“Also recorded” adds a separate entry of the source.

Key:
Trypanosoma rhodesiense [1] = experiment: 30-day survival and cure of Trypanosoma rhodesiense-infected mice treated with cisplatin; format: in vivo; conditions: for cure, survival and damage on concurrent treatment: hydrated, trypanosome-infected mice, cisplatin and disulfiram or diethyl dithiocarbamate
Experimental: Laboratory animals of diverse sorts have been employed in studies with trypanosomes. […] This method has been reported in detail: L. Rane, D. S. Rane, and K. E. Kinnamon, Am. J. Trop. Med. Hyg., 25, 395-400 (1976).
(§1) Anti-trypanosomal activity reported in this invention was determined according to the procedure outlined in the article of L. Rane, et al entitled "Screening Large Numbers of Compounds in a Model Based on Mortality of Trypanosoma rhodesiense Infected Mice," The American Journal of Tropical Medicine and Hygiene, Volume 25, No. 3, pages 395-400 ([…]). To summarize, however, experiments were conducted with the Wellcome CT strain of Trypanosoma rhodesiense originally isolated in 1934. The test system is patterned after the one developed and employed in testing of compounds for activity against Plasmodium berghei malaria [see Osdene, et al, New Series of Potential Antimalarial Agents, J. Med. Chem., 10, 431-434 (1967)]. The test system is based on comparisons of responses to test compounds by ICR/HA Swiss mice infected with the strain as expressed in mean survival times compared with mean survival times of untreated controls.
Test mice (of similar age were females and 21 to 25 grams in weight) received an intraperitoneal injection of 0.5 ml of a 1:50,000 dilution of heparinized heart blood drawn from donor mice infected with Trypanosoma rhodesiense 3 days earlier.
Deaths prior to the fourth day (when untreated controls begin to die) were regarded as not related to the infection and were scored as "toxic deaths." Treated animals were kept under observation for 30 days. Parasitemias were monitored by thick blood film smears (taken from tail veins of the mice) every 2 days for the 30-day course of the experiment. Survivors at the end of 30 days were considered cured. […] In calculating mean survival times, toxic deaths and 30 day survivors were not included.
(§2) All groups included 10 mice except where indicated. Therapy was 3 mg/kg
trypanosomes and subsequently given intraperitoneally for number of days
indicated in first column. Disulfiram (250 mg/kgorally) was given exactly
physiologic saline given subcutaneously four times per day. Survival is
given as % survival 30 days following initial therapy.

Trypanosoma rhodesiense [2] = experiment: Subinoculation of tissues (blood, heart, brain) of cured mice into healthy recipient mice; format: in vivo, Trypanosoma rhodesiense in mice; conditions: donors: cisplatin with hydration plus disulfiram
Description: The considerable and complex nature of problems in various developing countries of tropical Africa have been worsened by the increasing incidents of trypanosomiasis. Drugs for the management of this highly fatal infection have been generally inadequate or/and highly toxic to the victim. The present invention relates to a novel means for alleviating the toxic effects of an agent useful in the treatment of highly fatal trypanosome infections in animals. […] However, cures have been achieved safely by concurrent hydration of the animals and oral dosing with disulfiram. This procedure was firmly established as affording parasitologic cures of the experimental animals by subinoculation of tissues (blood, brain, heart) into recipient mice from mice cured of trypanosomiasis in accordance with the method of this invention.
Some animals suffered relapses 6 to 14 days after the last doses. […] All survivors at 30 days were sacrificed, and tissues (blood; heart; brain) subinoculated into healthy mice. […] Thus, no latent trypanosomes had survived the therapy.

[3] = 30-day survival of uninfected (healthy) mice treated with cisplatin, with or without hydration and disulfiram; format: in vivo
Experimental: Ten animals were used in each of three test procedures for the three regimens of drug dosing. The test procedures included: no hydration of mice; hydration of mice; and hydration plus disulfiram administration to the animals.
as §2
indicated. Disulfiram (250 mg/kgorally) was given exactly four hours
Hydration was 3 ml of physiologic saline
given subcutaneously four times per day. Survival is given as % survival
30 days following initial therapy.
^a Average survival from four experiments with 10 mice per experiment

Trypanosoma rhodesiense [4] = conditions: Kinnamon et al.; peanut oil vehicle; cited from earlier work
Trypanosoma rhodesiense [5] = experiment: Parasitemia in infected mice, monitored by thick blood film smears; format: in vivo
Experimental: as §1
By using a standard inoculum of 1×10^6 trypanosomes, it was possible to produce a uniform disease fatal to 100% of untreated animals within four to six days, with a mean survival time of 4.45±0.24 days. Test mice (of similar age were females and 21 to 25 grams in weight) received an intraperitoneal injection of 0.5 ml of a 1:50,000 dilution of heparinized heart blood drawn from donor mice infected with Trypanosoma rhodesiense 3 days earlier.
Deaths prior to the fourth day (when untreated controls begin to die) were regarded as not related to the infection and were scored as "toxic deaths." Treated animals were kept under observation for 30 days. Parasitemias were monitored by thick blood film smears (taken from tail veins of the mice) every 2 days for the 30-day course of the experiment. Survivors at the end of 30 days were considered cured. An increase of 100% in mean survival time over control animals was considered as a minimum effective response. In calculating mean survival times, toxic deaths and 30 day survivors were not included.
The therapeutic regimen was that described in Examples 1 through 3.

[6] = Histopathology of mice treated with cisplatin; format: in vivo
Description: Thus, histopathologic studies were requisite.
Two mice from each of these groups were necropsied at various times following cisplatin treatment. […] Tissues were fixed in 10% neutral buffered formalin, imbedded in paraffin, sectioned to 6-8μ and stained with hematoxylin and eosin.

[7] = no hydration, 3 mg/kg/day i.p., 7 days
[8] = with hydration, 3 mg/kg/day i.p., 7 days
[9] = hydration + disulfiram, cisplatin 3 mg/kg/day, 6 days
[10] = with hydration, 3 mg/kg/day, 6 days
[11] = mice treated with cisplatin alone

N.N.[Cl][Pt][Cl] [Cisplatin, cis-diamminedichloroplatinum (II)]
curative effects on Trypanosoma rhodesiense infections (Trypanosoma rhodesiense [1]; 3 mg/kg/day for 7 days): does exert curative effects
cure, survival and damage on concurrent treatment (Trypanosoma rhodesiense [1]): effected cures of the infection with very good survival and little damage to test animals
30-Day survival of trypanosome-infected mice (Trypanosoma rhodesiense [1]; hydration + disulfiram (250 mg/kg orally), cisplatin 3 mg/kg/day i.p., 6 days, average of four experiments): 62.5%
cure of Trypanosoma rhodesiense infection (Trypanosoma rhodesiense [1]; hydration plus disulfiram, cisplatin 3 mg/kg daily for seven days): effective in curing mice; also recorded: fully curative, and not merely palliative
30-Day survival of trypanosome-infected mice (Trypanosoma rhodesiense [1]; [7]): 0%
30-Day survival of trypanosome-infected mice (Trypanosoma rhodesiense [1]; [8]): 57%
cure of Trypanosoma rhodesiense infection (Trypanosoma rhodesiense [1]; with hydration, 7-day regimen): effective in curing mice
trypanosome infection in recipient mice after subinoculation of tissues of survivors (Trypanosoma rhodesiense [2]): did not produce the trypanosomiasis in the recipient mice; also recorded: No recipient mice developed trypanosome infection
30-Day survival ([3]; hydration + disulfiram (250 mg/kg orally), cisplatin 3 mg/kg/day i.p., 6 days): 100%
30-Day survival ([3]; hydration + disulfiram (250 mg/kg orally), cisplatin 3 mg/kg/day i.p., 7 days, average of four experiments): 100%
mortality from cisplatin administration ([3]; hydration with or without disulfiram): ameliorated by hydration, with or without use of disulfiram
30-Day survival ([3]; no hydration, 3 mg/kg/day i.p., 5 days): 100%
30-Day survival ([3]; no hydration, 3 mg/kg/day i.p., 6 days): 10%
30-Day survival [3, 7]: 0%
30-Day survival ([3]; with hydration, 3 mg/kg/day i.p., 6 days): 100%
30-Day survival [3, 8]: 90%
anti-trypanosomal effects in prior work (Trypanosoma rhodesiense [4]): anti-trypanosomal effects at dose levels which were unsuitably toxic to the test animals
clearance of trypanosomes from bloodstream (Trypanosoma rhodesiense [5]; cisplatin alone, 3 mg/kg/day, 5 days): failed to clear the bloodstream of trypanosomes
clearance of trypanosomes from blood (Trypanosoma rhodesiense [5]; [9]): temporarily cleared of trypanosomes; also recorded: Blood of all mice was cleared of trypanosones
relapse of parasitemia (Trypanosoma rhodesiense [5]; [9]): relapses of parasitemia occurred; also recorded: Relapse of parasitemia
clearance of trypanosomes from blood (Trypanosoma rhodesiense [5]; no hydration, 3 mg/kg/day, 7 days): Blood of all mice was cleared of trypanosones
time of relapse after the last doses (Trypanosoma rhodesiense [5]; some animals, hydration + disulfiram, cisplatin 6 daily doses): 6 to 14 days
clearance of trypanosomes from blood (Trypanosoma rhodesiense [5]; [10]): Blood of all mice was cleared of trypanosones
relapse of parasitemia (Trypanosoma rhodesiense [5]; [10]): Relapse of parasitemia
clearance of trypanosomes from blood (Trypanosoma rhodesiense [5]; with hydration, 3 mg/kg/day, 7 days): Blood of all mice was cleared of trypanosones
renal cortex findings ([6]; cisplatin alone, necropsied on day 18 or later): multifocal accumulations of lymphoplasmacytic inflammatory cells with areas of tubular regeneration
early renal lesions [6, 11]: acute proximal and distal tubular necrosis
lesions other than renal [6, 11]: colonic and jejunal enteritis, and interstitial pneumonia with edema and vascular congestion
renal lesions (frequency) [6, 11]: highly common

CCN(CC)C(=S)SSC(=S)N(CC)CC [Disulfiram, bis-(diethylthiocarbamoyl) disulfide]
anti-trypanosomal activity of disulfiram alone (Trypanosoma rhodesiense [1]; disulfiram alone, model test system): lack anti-trypanosomal activity
cure, survival and damage on concurrent treatment (Trypanosoma rhodesiense [1]): effected cures of the infection with very good survival and little damage to test animals
protection from toxic effects of cisplatin ([6]; oral disulfiram given with cisplatin): protected the kidneys and gastrointestinal tracts from the toxic effects

CCN(CC)C(=S)S [diethyl dithiocarbamate]
cure, survival and damage on concurrent treatment (Trypanosoma rhodesiense [1]): effected cures of the infection with very good survival and little damage to test animals
